# Results reported in US8569509B2, “Thiazole-4-carboxylic acid esters and thioesters as plant protection agents” (priority 2008, dated 2013).
# Test: log P determination (HPLC, calibration with unbranched alkan-2-ones)
# Format: physicochemical
# Conditions: * LC-MS determination in the acidic range at pH 2.7, 0.1% aqueous formic acid and acetonitrile, linear gradient 10% to 95% acetonitrile
# Protocol: The calibration is carried out using unbranched alkan-2-ones (having 3 to 16 carbon atoms) with known log P values (determination of the log P values by the retention times using linear interpolation between two successive alkanones). The lambda-maX values were determined in the maxima of the chromatographic signals using the UV spectra from 200 nm to 400 nm.
row,SMILES,log p
1,Cc1cc(C)n(C(C)(C)C(=O)N2CCC(c3nc(C(=O)Oc4ccc5ccccc5c4)cs3)CC2)n1 [compound 378],3.73*
2,Cc1cc(C)n(C(C)(C)C(=O)N2CCC(c3nc(C(=O)Oc4ccccc4)cs3)CC2)n1 [compound 412],3.06*
3,Cc1cc(C)n(C(C)(C)C(=O)N2CCC(c3nc(C(=O)OCc4ccncc4)cs3)CC2)n1 [compound 442],1.33*
4,Cc1c(Cl)c(C(F)(F)F)nn1C(C)C(=O)N1CCC(c2nc(C(=O)OC3CCCCC3)cs2)CC1 (racemic) [compound 769],4.58*
5,Cc1cc(C)n(C(C)(C)C(=O)N2CCC(c3nc(C(=O)OCC4CC4)cs3)CC2)n1 [compound 372],3.86*
6,Cc1cc(C)n(C(C)(C)C(=O)N2CCC(c3nc(C(=O)OCCc4ccc(F)cc4)cs3)CC2)n1 [compound 405],3.42*

# Same assay, conditions: * LC-MS determination in the acidic range at pH 2.7, 0.1% aqueous formic acid and acetonitrile, linear gradient 10% to 95% acetonitrile, reversed-phase C 18
row,SMILES,log p
1,O=C(OCCc1ccc(F)cc1)c1csc(C2CCN(C(=O)Cn3ccc(C(F)(F)F)n3)CC2)n1 [compound 126],3.27*
2,Cc1c(Cl)c(C(F)(F)F)nn1CC(=O)N1CCC(c2nc(C(=O)OC3CCCCC3)cs2)CC1 [compound 145],4.17*
3,Cc1c(Cl)c(C(F)(F)F)nn1CC(=O)N1CCC(c2nc(C(=O)OCc3cccs3)cs2)CC1 [compound 218],3.58*
4,O=C(Oc1ccc(F)cc1)c1csc(C2CCN(C(=O)Cn3ccc(C(F)(F)F)n3)CC2)n1 [compound 128],2.89*
5,Cc1c(Cl)c(C(F)(F)F)nn1CC(=O)N1CCC(c2nc(C(=O)Oc3ccc(F)cc3)cs2)CC1 [compound 188],3.63*
6,Cc1c(Cl)c(C(F)(F)F)nn1CC(=O)N1CCC(c2nc(C(=O)Oc3ccc4ccccc4c3)cs2)CC1 [compound 153],4.17*
7,Cc1c(Cl)c(C(F)(F)F)nn1CC(=O)N1CCC(c2nc(C(=O)OCCc3ccc(F)cc3)cs2)CC1 [compound 186],3.94*
8,Cc1c(Cl)c(C(F)(F)F)nn1CC(=O)N1CCC(c2nc(C(=O)OC3CCCC3)cs2)CC1 [compound 146],3.84*

# Same assay, conditions: * LC-MS determination in the acidic range at pH 2.7, mobile phases 0.1% aqueous formic acid and acetonitrile (0.1% formic acid), linear gradient 10% to 95% acetonitrile; reversed-phase C 18 HPLC
row,SMILES,log p
1,Cc1cc(C(F)(F)F)nn1CC(=O)N1CCC(c2nc(C(=O)OC3CCC4(CC3)OCCO4)cs2)CC1 [compound 830],2.90*
2,Cc1cc(C(F)(F)F)nn1CC(=O)N1CCC(c2nc(C(=O)Oc3ccccc3-c3ccccc3)cs2)CC1 [compound 821],3.96*
3,Cc1cc(C(F)(F)F)nn1CC(=O)N1CCC(c2nc(C(=O)OCc3ccc(OC(F)(F)F)cc3)cs2)CC1 [compound 819],3.99*
4,CCc1cc(C(F)(F)F)n(CC(=O)N2CCC(c3nc(C(=O)OCC4CCCCC4)cs3)CC2)n1 [compound 852],3.99*
5,C#CC1(OC(=O)c2csc(C3CCN(C(=O)Cn4nc(C(F)(F)F)cc4C)CC3)n2)CCCCC1 [compound 826],3.76*
6,Cc1cc(C(F)(F)F)nn1CC(=O)N1CCC(c2nc(C(=O)Oc3cccc4cccnc34)cs2)CC1 [compound 782],2.88*
7,Cc1cc(C)n(C(C)(C)C(=O)N2CCC(c3nc(C(=O)OC4CC5CCC4(C)C5(C)C)cs3)CC2)n1 (stereo not shown) [compound 800],5.08*
8,Cc1cc(C(F)(F)F)nn1CC(=O)N1CCC(c2nc(C(=O)Oc3ccc(Oc4ccccc4)cc3)cs2)CC1 [compound 825],4.14*
9,CC=CC(CC)OC(=O)c1csc(C2CCN(C(=O)C(C)(C)n3nc(C)cc3C)CC2)n1 (mixture of isomers) [compound 799],3.78*
10,Cc1cc(C(F)(F)F)nn1CC(=O)N1CCC(c2nc(C(=O)OCc3cccc4ccccc34)cs2)CC1 [compound 783],3.90*
11,CC(C)(C)c1cc(C(F)(F)F)nn1CC(=O)N1CCC(c2nc(C(=O)OCC3CCCCC3)cs2)CC1 [compound 848],4.51*
12,Cc1cc(C(F)(F)F)nn1CC(=O)N1CCC(c2nc(C(=O)OC3(C#N)CCCCC3)cs2)CC1 [compound 827],3.33*
13,Cc1cc(C(F)(F)F)nn1CC(=O)N1CCC(c2nc(C(=O)Oc3cccc(Oc4ccccc4)c3)cs2)CC1 [compound 824],4.18*
14,Cc1cc(C(F)(F)F)nn1CC(=O)N1CCC(c2nc(C(=O)OCc3ccccc3C(F)(F)F)cs2)CC1 [compound 836],3.84*
15,Cc1cc(C(F)(F)F)nn1CC(=O)N1CCC(c2nc(C(=O)OC3CC(C)CCC3C(C)C)cs2)CC1 (stereo not shown) [compound 829],5.22*
16,Cc1cc(C(F)(F)F)nn1CC(=O)N1CCC(c2nc(C(=O)Oc3ccc4cccnc4c3)cs2)CC1 [compound 781],2.42*
17,C#CC1(OC(=O)c2csc(C3CCN(C(=O)C(C)(C)n4nc(C)cc4C)CC3)n2)CCCCC1 [compound 804],3.73*
18,Cc1cc(C(F)(F)F)nn1CC(=O)N1CCC(c2nc(C(=O)Oc3cccc4cnccc34)cs2)CC1 [compound 794],2.18*
19,CC(C)c1cc(C(F)(F)F)n(CC(=O)N2CCC(c3nc(C(=O)OCC4CCCCC4)cs3)CC2)n1 [compound 851],4.35*
20,Cc1cc(C(F)(F)F)nn1CC(=O)N1CCC(c2nc(C(=O)OC(c3ccccc3)C3CC3)cs2)CC1 (stereo not shown) [compound 815],3.87*
21,Cc1cc(C(F)(F)F)nn1CC(=O)N1CCC(c2nc(C(=O)O[C@H]3CCCc4ccccc43)cs2)CC1 [compound 853],4.06*
22,Cc1cc(C(F)(F)F)nn1CC(=O)N1CCC(c2nc(C(=O)O[C@@H]3CCCc4ccccc43)cs2)CC1 [compound 795],4.06*
23,COc1ccccc1COC(=O)c1csc(C2CCN(C(=O)Cn3nc(C(F)(F)F)cc3C)CC2)n1 [compound 817],3.44*
24,Cc1cc(C(F)(F)F)nn1CC(=O)N1CCC(c2nc(C(=O)OCC#Cc3ccccc3)cs2)CC1 [compound 787],3.70*
25,Cc1cc(C(F)(F)F)nn1CC(=O)N1CCC(c2nc(C(=O)OC3CCC(C(C)(C)C)CC3)cs2)CC1 (stereo not shown) [compound 828],5.19*
26,Cc1cc(C)n(C(C)(C)C(=O)N2CCC(c3nc(C(=O)OCCN(C)C)cs3)CC2)n1 [compound 803],1.03*
27,O=C(Oc1cccc2ccccc12)c1csc(C2CCN(C(=O)Cn3nc(C(F)(F)F)cc3-c3ccccc3)CC2)n1 [compound 777],4.50*

# Same assay, conditions: * LC-MS determination in the acidic range, pH 2.7, 0.1% aqueous formic acid and acetonitrile, linear gradient 10% to 95% acetonitrile
row,SMILES,log p
1,O=C(OCc1ccccc1)c1csc(C2CCN(C(=O)Cn3ccc(C(F)(F)F)n3)CC2)n1 [compound 94],2.99*
2,O=C(OCc1ccc(F)cc1)c1csc(C2CCN(C(=O)Cn3ccc(C(F)(F)F)n3)CC2)n1 [compound 95],3.04*
3,Cc1cc(C(F)(F)F)nn1CC(=O)N1CCC(c2nc(C(=O)OCc3cccc(Cl)c3)cs2)CC1 [compound 24],3.72*
4,Cc1cc(C(F)(F)F)nn1CC(=O)N1CCC(c2nc(C(=O)OCc3ccccn3)cs2)CC1 [compound 80],2.21*
5,C[Si](C)(C)COC(=O)c1csc(C2CCN(C(=O)Cn3ccc(C(F)(F)F)n3)CC2)n1 [compound 84],3.53*
6,Cc1ccc(COC(=O)c2csc(C3CCN(C(=O)Cn4nc(C(F)(F)F)cc4C)CC3)n2)cc1 [compound 18],4.21*
7,O=C(OC1CCCCC1)c1csc(C2CCN(C(=O)Cn3ccc(C(F)(F)F)n3)CC2)n1 [compound 85],3.42*
8,Cc1cc(C(F)(F)F)nn1CC(=O)N1CCC(c2nc(C(=O)Oc3ccc4ccccc4c3)cs2)CC1 [compound 10],3.84*
9,Cc1cc(C(F)(F)F)nn1CC(=O)N1CCC(c2nc(C(=O)Oc3ccccc3)cs2)CC1 [compound 44],3.20*
10,Cc1cc(C(F)(F)F)nn1CC(=O)N1CCC(c2nc(C(=O)OCc3ccc(Cl)cc3)cs2)CC1 [compound 17],3.73*
11,O=C(OC1CCCc2ccccc21)c1csc(C2CCN(C(=O)Cn3ccc(C(F)(F)F)n3)CC2)n1 (stereo not shown) [compound 89],3.68*
12,CCC(OC(=O)c1csc(C2CCN(C(=O)Cn3nc(C(F)(F)F)cc3C)CC2)n1)c1ccc(F)cc1 (stereo not shown) [compound 42],3.89*

# Same assay, conditions: pH 2.7; read-out: log P (pH 2.7)
row,SMILES,chromatographic logP
1,"CCOC(=O)c1csc(C2CCNCC2)n1 [VI-1, 4-[4-(Ethoxycarbonyl)-1,3-thiazol-2-yl]piperidinium chloride]",0.42
2,"CC(C)(C)CCOC(=O)c1csc(C2CCN(C(=O)Cn3ccc(C(F)(F)F)n3)CC2)n1 [compound 767, 3,3-Dimethylbutyl 2-(1-{[3-(trifluoromethyl)-1H-pyrazol-1-yl]acetyl}piperidin-4-yl)-1,3-thiazole-4-carboxylate]",3.82
3,"Cc1cc(C(F)(F)F)nn1CC(=O)N1CCCC(c2nc(C(=O)O)cs2)C1 (stereo not shown) [III-3, 2-(1-{[5-Methyl-3-(trifluoromethyl)-1H-pyrazol-1-yl]acetyl}piperidin-3-yl)-1,3-thiazole-4-carboxylic acid]",1.9
4,"CCOC(=O)Cn1nc(C(C)(C)C)cc1C(F)(F)C(F)(F)F [XVI-3, Ethyl [3-tert-butyl-5-(pentafluoroethyl)-1H-pyrazol-1-yl]acetate]",4.45
5,"O=C(O)c1csc(C2CCN(C(=O)Cn3nc(C(F)F)cc3C(F)F)CC2)n1 [III-1, 2-(1-{[3,5-Bis(difluoromethyl)-1H-pyrazol-1-yl]acetyl}piperidin-4-yl)-1,3-thiazole-4-carboxylic acid]",1.71
6,"CC(C)(C)c1cc(C(F)(F)F)n(CC(=O)O)n1 [V-1, [3-tert-Butyl-5-(trifluoromethyl)-1H-pyrazol-1-yl]acetic acid]",2.45
7,"CC(C)(C)c1cc(C(F)(F)F)nn1CC(=O)O [V-2, [5-tert-Butyl-3-(trifluoromethyl)-1H-pyrazol-1-yl]acetic acid]",2.45

# Same assay, conditions: reversed-phase (C18) HPLC column; * LC-MS determination in the acidic range at pH 2.7, 0.1% aqueous formic acid and acetonitrile, linear gradient 10% to 95% acetonitrile; read-out: log p
row,SMILES,chromatographic logP
1,"CC(C)(C)CCOC(=O)c1csc(C2CCN(C(=O)Cn3ccc(C(F)(F)F)n3)CC2)n1 [compound 767, 3,3-Dimethylbutyl 2-(1-{[3-(trifluoromethyl)-1H-pyrazol-1-yl]acetyl}piperidin-4-yl)-1,3-thiazole-4-carboxylate]",3.82
